Source: US20100317524A1, “Sulfonylureas” (Bayer CropScience AG, priority 2005, published 2010)

Assays:
[1] = system: weed plants such as Sinapis alba, Echinochloa crus-galli, Lolium multiflorum, Chrysanthemum segetum, Setaria viridis, Abutilon theophrasti, Amaranthus …; assay: Post-emergence effect on weeds (greenhouse pot test, visual scoring); format: in vivo; details: applied post-emergence (three-leaf stage) at a rate of 0.3 kg or less of active substance per hectare; visual scoring after about 3 to 4 weeks vs untreated controls
Experimental: Seeds or sections of rhizome from monocot and dicot broadleaf weeds were laid out in sandy loam soil in plastic pots, covered with earth, and cultivated in a greenhouse under good growth conditions. Three weeks after sowing, the test plants were treated at the three-leaf stage. The compounds of the invention, formulated as wettable powders or as emulsion concentrates, were sprayed in different dosages onto the green parts of the plants, at an application rate of 600 to 800 l of water per hectare (converted). After the test plants had stood in the greenhouse under optimum growth conditions for a period of about 3 to 4 weeks, the effect of the products was scored visually in comparison to untreated controls.

[2] = system: weed plants such as Sinapis alba, Chrysanthemum segetum, Avena sativa, Stellaria media, Echinochloa crus-galli, Lolium multiflorum, Setaria viridis, Abutilon …; assay: Pre-emergence effect on weeds (greenhouse pot test, visual scoring); format: in vivo; details: applied pre-emergence at a rate of 0.3 kg or less of active substance per hectare; visual scoring after 3 to 4 weeks vs untreated controls
Description: Seeds or sections of rhizome from monocot and dicot weed plants were laid out in sandy loam soil in cardboard pots, and covered with soil. The compounds of the invention, formulated as wettable powders or emulsifiable concentrates, were then applied, in the form of aqueous suspensions or emulsions, at various dosages, onto the surface of the covering earth, at an application rate of 600 to 800 l of water per hectare (converted). Following the treatment, the pots were placed in a greenhouse and maintained under good growth conditions for the weeds. Visual scoring of the plant damage or emergence damage was made when the test plants had emerged, after a test time of 3 to 4 weeks, in comparison to untreated controls.

SMILES | herbicidal action against weed plants, post-emergence [1] | herbicidal action against weed plants, pre-emergence [2]
COc1nc(C)nc(NC(=O)NS(=O)(=O)c2c(I)cccc2OCC(F)(F)C(F)(F)F)n1 [Compound 1.370] | very good herbicidal action | very good herbicidal action
Cc1cc(C)nc(NC(=O)NS(=O)(=O)c2c(I)cccc2OCC(F)(F)C(F)(F)F)n1 [Compound 1.371] | very good herbicidal action | very good herbicidal action
COc1cc(Cl)nc(NC(=O)NS(=O)(=O)c2c(I)cccc2OCC(F)(F)C(F)(F)F)n1 [Compound 1.372] | very good herbicidal action | very good herbicidal action
COc1nc(NC(=O)NS(=O)(=O)c2c(I)cccc2OCC(F)(F)C(F)(F)F)nc(OC)n1 [Compound 1.373] | very good herbicidal action | very good herbicidal action
COc1cc(OC)nc(NC(=O)NS(=O)(=O)c2c(I)cccc2SC)n1 [Compound 1.389] | very good herbicidal action | very good herbicidal action
COc1nc(C)nc(NC(=O)NS(=O)(=O)c2c(I)cccc2SC)n1 [Compound 1.390] | very good herbicidal action | very good herbicidal action
COc1cc(OC)nc(NC(=O)NS(=O)(=O)c2c(I)cccc2OS(C)(=O)=O)n1 [Compound 1.463] | very good herbicidal action | very good herbicidal action
Cc1cc(C)nc(NC(=O)NS(=O)(=O)c2c(I)cccc2OS(C)(=O)=O)n1 [Compound 1.471] | very good herbicidal action | very good herbicidal action
COc1cc(Cl)nc(NC(=O)NS(=O)(=O)c2c(I)cccc2OS(C)(=O)=O)n1 [Compound 1.472] | very good herbicidal action | very good herbicidal action
COc1nc(NC(=O)NS(=O)(=O)c2c(I)cccc2OS(C)(=O)=O)nc(OC)n1 [Compound 1.476] | very good herbicidal action | very good herbicidal action
COc1cc(OC)nc(NC(=O)NS(=O)(=O)c2c(I)cccc2OS(=O)(=O)N(C)C)n1 [Compound 1.507] | very good herbicidal action | very good herbicidal action
Cc1cc(C)nc(NC(=O)NS(=O)(=O)c2c(I)cccc2OS(=O)(=O)N(C)C)n1 [Compound 1.509] | very good herbicidal action | very good herbicidal action
COc1cc(Cl)nc(NC(=O)NS(=O)(=O)c2c(I)cccc2OS(=O)(=O)N(C)C)n1 [Compound 1.510] | very good herbicidal action | very good herbicidal action
COc1nc(NC(=O)NS(=O)(=O)c2c(I)cccc2OS(=O)(=O)N(C)C)nc(OC)n1 [Compound 1.511] | very good herbicidal action | very good herbicidal action
CSc1cccc(I)c1S(=O)(=O)NC(=O)Nc1nc(C)cc(C)n1 [Compound 1.550] | very good herbicidal action | very good herbicidal action
COc1cc(Cl)nc(NC(=O)NS(=O)(=O)c2c(I)cccc2SC)n1 [Compound 1.551] | very good herbicidal action | very good herbicidal action
CCCCOc1cccc(I)c1S(=O)(=O)NC(=O)Nc1nc(C)nc(OC)n1 [Compound 1.553] | very good herbicidal action | very good herbicidal action
